In patent US20260317324A1, “BIFUNCTIONAL COMPOUNDS FOR DEGRADING BRAF VIA UBIQUITIN PROTEOSOME PATHWAY” (Nurix Therapeutics, Inc., priority 2023, published 2026):

How the values were obtained:
Assay type in all cases: cell-based
[1] = molecular target: T1, BRAF V600E (Homo sapiens, UniProt P15056, V600E); experiment: BRAF HiBiT degradation assay, C-terminal HiBiT-tagged BRAF V600E A375 cells (clone 1F10), Nano-Glo HiBiT Lytic assay; details: for Dmax: A-375
T1 construct: endogenous C-terminal HiBiT fusion tag on BRAF V600E allele; endogenous in cells; host or cells: A375 clone 1F10 (CRISPR-Cas9 knock-in of the HiBiT tag; parental A375 from ATCC)
T1 sequence (P15056 whole entry V600E, the tested form may be a part): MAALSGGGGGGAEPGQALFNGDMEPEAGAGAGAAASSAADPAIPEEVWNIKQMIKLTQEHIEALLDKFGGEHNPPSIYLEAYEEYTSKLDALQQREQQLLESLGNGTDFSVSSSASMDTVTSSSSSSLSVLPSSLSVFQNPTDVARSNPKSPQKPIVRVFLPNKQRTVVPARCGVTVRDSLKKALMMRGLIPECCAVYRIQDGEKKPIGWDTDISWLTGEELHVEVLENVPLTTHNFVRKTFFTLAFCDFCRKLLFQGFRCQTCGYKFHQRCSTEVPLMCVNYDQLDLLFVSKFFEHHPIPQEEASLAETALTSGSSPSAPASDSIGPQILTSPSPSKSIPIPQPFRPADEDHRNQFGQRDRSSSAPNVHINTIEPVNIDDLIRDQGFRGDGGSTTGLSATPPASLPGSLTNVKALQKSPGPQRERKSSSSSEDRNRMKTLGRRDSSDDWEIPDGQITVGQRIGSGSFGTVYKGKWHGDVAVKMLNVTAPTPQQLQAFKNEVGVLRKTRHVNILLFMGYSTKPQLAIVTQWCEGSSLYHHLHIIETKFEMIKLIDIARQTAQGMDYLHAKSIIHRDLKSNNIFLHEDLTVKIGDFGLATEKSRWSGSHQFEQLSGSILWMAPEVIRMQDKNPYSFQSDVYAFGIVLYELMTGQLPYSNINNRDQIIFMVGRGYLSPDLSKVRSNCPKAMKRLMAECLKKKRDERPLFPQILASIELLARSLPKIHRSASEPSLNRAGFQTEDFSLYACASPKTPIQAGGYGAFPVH
Outline: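 Endogenous BRAF V600E-HiBiT A375 (1F10), 10,000 cells/well, 24 h preculture; cpd 11-pt, 1 μM–0.01 nM half-log, n=2, 0.2% DMSO; HiBiT lytic detection 10 min RT; DC50 = fitted conc at Y=50; Obs. Dmax vs DMSO.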

[2] = molecular target: T2, BRAF G466V (Homo sapiens, UniProt P15056, G466V); experiment: BRAF HiBiT degradation assay, C-terminal HiBiT-tagged BRAF G466V overexpressed in HCT-116 BRAF−/− cells (clone 8), Nano-Glo HiBiT Lytic assay
T2 construct: Horizon Discovery (HCT-116 BRAF−/− cells); host or cells: HCT-116 BRAF−/− cells, clone 8, lentiviral transduction
T2 sequence (P15056 whole entry G466V): as the sequence (P15056 whole entry V600E, the tested form may be a part) above, with G466V, E600V counted along it
Outline: (§1)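 Luminescence from the lytic HiBiT reagent, read after 10 min at room temperature, measured tagged BRAF remaining in lentivirally transduced HCT-116 BRAF−/− cells. Compounds were tested from 1 μM to 0.01 nM in half-log steps at 0.2% DMSO. DC50 values were fitted at 50% remaining.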

[3] = molecular target: T3, BRAF G469A (Homo sapiens, UniProt P15056, G469A); experiment: BRAF HiBiT degradation assay, C-terminal HiBiT-tagged BRAF G469A overexpressed in HCT-116 BRAF−/− cells (clone 34), Nano-Glo HiBiT Lytic assay
T3 construct: Horizon Discovery (HCT-116 BRAF−/− cells); host or cells: HCT-116 BRAF−/− cells, clone 34, lentiviral transduction
T3 sequence (P15056 whole entry G469A): as the sequence (P15056 whole entry V600E, the tested form may be a part) above, with G469A, E600V counted along it
Outline: as §1

[4] = molecular target: T4, BRAF D594G (Homo sapiens, UniProt P15056, D594G); experiment: BRAF HiBiT degradation assay, C-terminal HiBiT-tagged BRAF D594G overexpressed in HCT-116 BRAF−/− cells (clone 63), Nano-Glo HiBiT Lytic assay
T4 construct: Horizon Discovery (HCT-116 BRAF−/− cells); host or cells: HCT-116 BRAF−/− cells, clone 63, lentiviral transduction
T4 sequence (P15056 whole entry D594G): as the sequence (P15056 whole entry V600E, the tested form may be a part) above, with D594G, E600V counted along it
Outline: as §1

[5] = A375 (BRAF V600E), DC50 at 50%: fitted conc. at Y=50
[6] = A375 (BRAF V600E), percentage protein degraded at maximal compound effect relative to DMSO
[7] = BRAF G466V, DC50 at 50%: fitted conc. at Y=50
[8] = HCT-116, BRAF G466V, percentage protein degraded at maximal compound effect relative to DMSO
[9] = Class 2, BRAF G469A, DC50 at 50%: fitted conc. at Y=50
[10] = HCT-116, Class 2, BRAF G469A, percentage protein degraded at maximal compound effect relative to DMSO
[11] = BRAF D594G, DC50 at 50%: fitted conc. at Y=50
[12] = HCT-116, BRAF D594G, percentage protein degraded at maximal compound effect relative to DMSO
[13] = A375 (BRAF V600E, Class 1), DC50 at 50% degradation
[14] = A375 (BRAF V600E, Class 1), observed Dmax, % protein degraded relative to DMSO control
[15] = BRAF G466V (Class 3), HCT-116 BRAF−/− cells, DC50 at 50% degradation
[16] = BRAF G466V (Class 3), HCT-116 BRAF−/− cells, observed Dmax relative to DMSO control
[17] = BRAF G469A (Class 2), HCT-116 BRAF−/− cells, DC50 at 50% degradation
[18] = BRAF G469A (Class 2), HCT-116 BRAF−/− cells, observed Dmax relative to DMSO control
[19] = BRAF D594G (Class 3), HCT-116 BRAF−/− cells, DC50 at 50% degradation
[20] = BRAF D594G (Class 3), HCT-116 BRAF−/− cells, observed Dmax relative to DMSO control

Compound | DC50 [1, 5] [nM] | Dmax [1, 6] [%] | DC50 [2, 7] [nM] | Dmax [2, 8] [%] | DC50 [3, 9] [nM] | Dmax [3, 10] [%] | DC50 [4, 11] [nM] | Dmax [4, 12] [%] | DC50 [1, 13] [nM] | Dmax [1, 14] [%] | DC50 [2, 15] [nM] | Dmax [2, 16] [%] | DC50 [3, 17] [nM] | Dmax [3, 18] [%] | DC50 [4, 19] [nM] | Dmax [4, 20] [%]
CCCS(=O)(=O)Nc1cccc(-c2nc(C(C)(C)C)sc2-c2ccnc(Nc3cccc(OC4CCN(C(=O)[C@@H]5CCN(c6ccc(C7CCC(=O)NC7=O)cn6)C5)CC4)c3)n2)c1F (mixture of isomers) [Compound 94, N-{3-[2-tert-butyl-5-(2-{[3-({1-[(3R)-1-{5-[(3RS)-2,6-dioxopiperidin-3-yl]pyridin-2-yl}pyrrolidine-3-carbonyl]piperidin-4-yl}oxy)phenyl]amino}pyrimidin-4-yl)-1,3-thiazol-4-yl]-2-fluorophenyl}propane-1-sulfonamide] | < 10 | > 70 | < 10 | 30 to 70 | > 500 | 30 to 70 | < 10 | 30 to 70 |  |  |  |  |  |  |  | 
CCCS(=O)(=O)Nc1cccc(-c2nc(C(C)(C)C)sc2-c2ccnc(Nc3ccc(C4CCN(C(=O)C[C@H]5CCN(c6ccc(C7CCC(=O)NC7=O)cc6)C5)CC4)cc3)n2)c1F (mixture of isomers) [Compound 165, N-{3-[2-tert-butyl-5-(2-{[4-(1-{2-[(3R)-1-{4-[(3RS)-2,6-dioxopiperidin-3-yl]phenyl}pyrrolidin-3-yl]acetyl}piperidin-4-yl)phenyl]amino}pyrimidin-4-yl)-1,3-thiazol-4-yl]-2-fluorophenyl}propane-1-sulfonamide] | 10 to 50 | 30 to 70 | > 500 | < 30 | > 500 | < 30 | > 500 | < 30 |  |  |  |  |  |  |  | 
C[C@@H]1CN(c2ccc(-n3cc(-c4cc(Cl)cc(NS(=O)(=O)N5CC[C@@H](F)C5)c4F)c(-c4ccncc4)n3)cc2)CCN1CC1CCN(c2ccc([C@H]3CCC(=O)NC3=O)cc2)CC1 [Compound 317, (3R)—N-[5-chloro-3-(1-{4-[(3R)-4-[(1-{4-[(3R)-2,6-dioxopiperidin-3-yl]phenyl}piperidin-4-yl)methyl]-3-methylpiperazin-1-yl]phenyl}-3-(pyridin-4-yl)-1H-pyrazol-4-yl)-2-fluorophenyl]-3-fluoropyrrolidine-1-sulfonamide] |  |  |  |  |  |  |  |  | < 10 | > 70 | < 10 | > 70 | < 10 | > 70 | < 10 | 30 to 70
CCCS(=O)(=O)Nc1cccc(-c2nc(C(C)(C)C)sc2-c2ccnc(Nc3ccc(N4CCN(CC5CCN(c6ccc([C@H]7CCC(=O)NC7=O)cc6)CC5)CC4)cc3)n2)c1F [Compound 59, N-[3-(2-tert-butyl-5-{2-[(4-{4-[(1-{4-[(3R)-2,6-dioxopiperidin-3-yl]phenyl}piperidin-4-yl)methyl]piperazin-1-yl}phenyl)amino]pyrimidin-4-yl}-1,3-thiazol-4-yl)-2-fluorophenyl]propane-1-sulfonamide] | 10 to 50 | > 70 | < 10 | > 70 | > 500 | 30 to 70 | 10 to 50 | 30 to 70 |  |  |  |  |  |  |  | 
CCN(C)S(=O)(=O)Nc1cc(Cl)cc(-c2cn(-c3ccc(N4CCN(CC5CCN(c6ccc(C7CCC(=O)NC7=O)cn6)CC5)CC4)cc3)nc2-c2ccncc2)c1F (racemic) [Compound 308, Rac-(3R)-3-(6-{4-[(4-{4-[4-(5-chloro-3-{[ethyl(methyl)sulfamoyl]amino}-2-fluorophenyl)-3-(pyridin-4-yl)-1H-pyrazol-1-yl]phenyl}piperazin-1-yl)methyl]piperidin-1-yl}pyridin-3-yl)piperidine-2,6-dione] |  |  |  |  |  |  |  |  | < 10 | > 70 | < 10 | > 70 | 10 to 50 | > 70 | < 10 | > 70
